Laboratory results published in patent US20260256807A1, “SUBSTITUTED PYRAZOLES AND IMIDAZOLES AS OREXIN RECEPTOR ANTAGONISTS COMPOSITION, METHODS FOR TREATING NEUROLOGICAL AND PSYCHOLOGICAL DISORDERS” (HAGER BIOSCIENCES, LLC, priority 2022, published 2026).

Tests used:
human orexin-1 receptor = target: T1, human orexin-1 receptor (Homo sapiens, UniProt O43613); test: Intracellular calcium (FLIPR) antagonist assay, CHO cells expressing human orexin-1 receptor, 3 nM orexin-A; assay type: cell-based; conditions: CHO, 1 uM compound, orexin-A 3 nM, read-out: OXIR % Inh. @ 1 uM
T1 construct: expressed in transfected cells; host or cells: CHO cells (G418 selection)
T1 sequence (O43613 1-425): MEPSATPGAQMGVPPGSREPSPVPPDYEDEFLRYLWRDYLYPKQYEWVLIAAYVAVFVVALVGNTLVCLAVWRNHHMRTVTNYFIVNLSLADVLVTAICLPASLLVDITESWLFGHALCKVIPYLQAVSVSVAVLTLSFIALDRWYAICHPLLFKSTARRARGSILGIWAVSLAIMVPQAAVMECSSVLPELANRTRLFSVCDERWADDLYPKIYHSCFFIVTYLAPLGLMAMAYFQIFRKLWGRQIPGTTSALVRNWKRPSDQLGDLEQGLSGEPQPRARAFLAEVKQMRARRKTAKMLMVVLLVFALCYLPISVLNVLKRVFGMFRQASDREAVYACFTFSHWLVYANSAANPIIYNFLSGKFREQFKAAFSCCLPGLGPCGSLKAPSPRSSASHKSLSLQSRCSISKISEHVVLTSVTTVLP
Description: (§1) Antagonistic activities on both orexin receptors (i.e., to identify Orexin Receptor Antagonists) have been measured for each example compound using the in vitro assays (intracellular calcium measurements) as described herein. Other assays may also be used to identify Orexin Receptor Antagonists as would be understood by those of ordinary skill in the art. Chinese hamster ovary (CHO) cells expressing the human orexin-1 receptor and the human orexin-2 receptor, respectively, are grown in culture medium (Ham F-12 with L-Glutamine) containing 300 μg/mL G418, 100 U/mL penicillin, 100 μg/mL streptomycin and 10% heat inactivated fetal calf serum (FCS). The cells are seeded at 20′000 cells/well into 384-well black clear bottom sterile plates (Greiner). The seeded plates are incubated overnight at 37° C. in 5% CO2. Human orexin-A as an agonist is prepared as 1 mM stock solution in MeOH: water (1:1), diluted in HBSS containing 0.1% bovine serum albumin (BSA), NaHC03: 0.375 g/L and 20 mM HEPES for use in the assay at a final concentration of 3 nM.
(§2) Antagonists were prepared as 10 mM stock solution in DMSO, then diluted in 384-well plates using DMSO followed by a transfer of the dilutions into in HBSS containing 0.1% bovine serum albumin (BSA), NaHC03: 0.375 g/L and 20 mM HEPES. On the day of the assay, 50 μL of staining buffer (HBSS containing 1% FCS, 20 mM HEPES, NaHC03: 0.375 g/L, 5 mM probenecid (Sigma) and 3 μM of the fluorescent calcium indicator fluro-4 AM (1 mM stock solution in DMSO, containing 10% pluronic) is added to each well. The 384-well cell-plates are incubated for 50 min at 37° C. in 5% C02 followed by equilibration at RT for 30 min before measurement. Within the Fluorescent Imaging Plate Reader (FLIPR Tetra, Molecular Devices), potential Orexin Receptor Antagonists were added to the plate in a volume of 10 μl/well, incubated for 120 min and finally 10 μL/well of agonist is added. Fluorescence was measured for each well at 1 second intervals, and the height of each fluorescence peak compared to the height of the fluorescence peak induced by 3 nM orexin-A with vehicle in place of antagonist. The IC50 value (the concentration of compound needed to inhibit 50% of the agonistic response) was determined and normalized using the obtained IC50 value of an on-plate reference compound. Optimized conditions were achieved by adjustment of pipetting speed and cell splitting regime. The calculated IC50 values fluctuate depending on the daily cellular assay performance, as is known to those skilled in the art. In the case where IC50 values have been determined several times for the same compound, the geometric mean has been given.

human orexin-2 receptor = target: T2, human orexin-2 receptor (Homo sapiens, UniProt O43614); test: Intracellular calcium (FLIPR) antagonist assay, CHO cells expressing human orexin-2 receptor, 3 nM orexin-A; assay type: cell-based; conditions: CHO, 1 uM compound, orexin-A 3 nM, read-out: OX2R % Inh. @ 1uM
T2 construct: expressed in transfected cells; host or cells: CHO cells (G418 selection)
T2 sequence (O43614 1-444): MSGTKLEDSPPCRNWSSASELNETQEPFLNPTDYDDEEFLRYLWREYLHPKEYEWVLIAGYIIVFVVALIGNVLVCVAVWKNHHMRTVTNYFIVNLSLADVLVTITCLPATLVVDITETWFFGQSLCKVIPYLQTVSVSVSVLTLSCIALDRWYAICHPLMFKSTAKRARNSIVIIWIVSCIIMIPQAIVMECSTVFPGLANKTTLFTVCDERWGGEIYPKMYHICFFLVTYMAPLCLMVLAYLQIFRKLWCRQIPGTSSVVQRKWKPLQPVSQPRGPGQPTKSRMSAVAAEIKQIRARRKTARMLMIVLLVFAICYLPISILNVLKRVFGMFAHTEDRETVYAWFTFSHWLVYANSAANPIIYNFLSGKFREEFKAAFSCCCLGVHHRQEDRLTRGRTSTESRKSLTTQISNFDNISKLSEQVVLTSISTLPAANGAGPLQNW
Description: as §1, §2

SMILES	inhibition at 1 µM (human orexin-1 receptor)	inhibition at 1 µM (human orexin-2 receptor)
Cc1cc(C)nc(N2CC3CN(C(=O)C4C(c5ccccc5)=NN5C=CC=CC45)CC3C2)n1 (stereo not drawn) [Example 42]	40.4%	68%
Cc1cc(C)nc(N2CC3CN(C(=O)c4c(-c5ccccc5)nc5ccccn45)CC3C2)n1 (stereo not drawn) [Example 43]	19.6%	38.4%
Cc1cc(C)nc(N2CC3CN(C(=O)c4c(-c5ccccc5F)nn5ccccc45)CC3C2)n1 (stereo not drawn) [Example 44]	19.2%	56.1%
O=C(c1c(-c2ccccc2F)nn2ccccc12)N1CC2CN(c3ccc(C(F)(F)F)cn3)CC2C1 (stereo not drawn) [Example 45]	78.2%	27.1%
O=C(c1c(-c2ccc(F)cc2)nn2ccccc12)N1CC2CN(c3ccc(C(F)(F)F)cn3)CC2C1 (stereo not drawn) [Example 46]	53.9%	14.6%
O=C(c1c(-c2ccccc2F)nn2ccccc12)N1CC2CN(c3nc4cc(Cl)ccc4o3)CC2C1 (stereo not drawn) [Example 47]	97%	89%
O=C(c1c(-c2ccc(F)cc2)nn2ccccc12)N1CC2CN(c3nc4cc(Cl)ccc4o3)CC2C1 (stereo not drawn) [Example 48]	87.1%	63.2%
Cc1cc(C)nc(N2CC3CN(C(=O)c4c(-c5ccccc5F)nn5c4COCC5)CC3C2)n1 (stereo not drawn) [Example 49]	-5.54%	12.8%
O=C(c1c(-c2ccccc2F)nn2c1COCC2)N1CC2CN(c3ccc(C(F)(F)F)cn3)CC2C1 (stereo not drawn) [Example 50]	9.55%	1.62%
O=C(c1c(-c2ccccc2F)nn2c1COCC2)N1CC2CN(c3nc4cc(Cl)ccc4o3)CC2C1 (stereo not drawn) [Example 51]	38.5%	24.3%
C[C@@H]1CCN(c2nc3cc(Cl)ccc3o2)CCN1C(=O)c1c(-c2ccccc2F)nn2ccccc12 [Example 52]	100%	98.7%
C[C@@H]1CCN(c2ccc(C(F)(F)F)cn2)CCN1C(=O)c1c(-c2ccccc2F)nn2ccccc12 [Example 53]	102%	98.8%
Cc1cc(C)nc(N2CC[C@@H](C)N(C(=O)c3c(-c4ccccc4F)nn4ccccc34)CC2)n1 [Example 54]	91.9%	99.7%
C[C@@H]1CCN(c2ccc(C(F)(F)F)cn2)CCN1C(=O)c1nc2ccccn2c1-c1ccccc1 [Example 55]	97%	37%
C[C@@H]1CCN(c2nc3cc(Cl)ccc3o2)CCN1C(=O)c1nc2ccccn2c1-c1ccccc1 [Example 56]	97%	27%
C[C@@H]1CCN(c2nc3cc(Cl)ccc3o2)CCN1C(=O)c1nn2c(c1-c1ccccc1)COCC2 [Example 57]	98%	28%
C[C@@H]1CCN(c2ccc(C(F)(F)F)cn2)CCN1C(=O)c1nn2c(c1-c1ccccc1)COCC2 [Example 58]	94%	30%
C[C@@H]1CCN(c2nc3cc(Cl)ccc3o2)CCN1C(=O)c1nn2c(c1-c1ccccc1)OCCC2 [Example 59]	99%	97%
C[C@@H]1CCN(c2ccc(C(F)(F)F)cn2)CCN1C(=O)c1nn2c(c1-c1ccccc1)OCCC2 [Example 60]	97%	81%
C[C@@H]1CCN(c2nc3cc(Cl)ccc3o2)CCN1C(=O)c1c(-c2ncccn2)nn2ccccc12 [Example 61]	100%	64%

SMILES	inhibition at 1 µM (human orexin-1 receptor)	inhibition at 1 µM (human orexin-2 receptor)
C[C@@H]1CCN(c2ccc(C(F)(F)F)cn2)CCN1C(=O)c1c(-c2ncccn2)nn2ccccc12 [Example 62]	100%	44%
C[C@@H]1CCN(c2nc3cc(Cl)ccc3o2)CCN1C(=O)c1c(-c2ccccn2)nn2ccccc12 [Example 63]	100%	96%
C[C@@H]1CCN(c2ccc(C(F)(F)F)cn2)CCN1C(=O)c1c(-c2ccccn2)nn2ccccc12 [Example 64]	100%	85%
C[C@@H]1CCN(c2nc3cc(Cl)ccc3o2)CCN1C(=O)c1c(-c2ccccc2)nn2cccnc12 [Example 65]	99%	80%
C[C@@H]1CCN(c2ccc(C(F)(F)F)cn2)CCN1C(=O)c1c(-c2ccccc2)nn2cccnc12 [Example 66]	99%	83%
C[C@@H]1CCN(c2nc3cc(Cl)ccc3o2)CCN1C(=O)c1nn2cccnc2c1-c1ccccc1 [Example 67]	99%	80%
C[C@@H]1CCN(c2ccc(C(F)(F)F)cn2)CCN1C(=O)c1nn2cccnc2c1-c1ccccc1 [Example 68]	100%	68%
Cc1cc(C)nc(N2CC[C@@H](C)N(C(=O)c3nc4ccccn4c3-c3ccccc3)CC2)n1 [Example 69]	23%	34%
Cc1cc(C)nc(N2CC[C@@H](C)N(C(=O)c3nn4c(c3-c3ccccc3)COCC4)CC2)n1 [Example 70]	27%	44%
Cc1cc(C)nc(N2CC[C@@H](C)N(C(=O)c3nn4ccccc4c3-c3ccccc3)CC2)n1 [Example 71]	75%	96%
Cc1cc(C)nc(N2CC[C@@H](C)N(C(=O)c3c(-c4ccccc4)nn4c3COCC4)CC2)n1 [Example 72]	28%	65%
Cc1cc(C)nc(N2CC[C@@H](C)N(C(=O)c3c(-c4ccccc4)nc4ccccn34)CC2)n1 [Example 73]	65%	95%
Cc1cc(C)nc(N2CC[C@@H](C)N(C(=O)c3nn4cccnc4c3-c3ccccc3)CC2)n1 [Example 74]	74%	95%
Cc1cc(C)nc(N2CC[C@@H](C)N(C(=O)c3c(-c4ccccn4)nn4ccccc34)CC2)n1 [Example 75]	79%	100%
COc1ccc(N2CC[C@@H](C)N(C(=O)c3nn4c(c3-c3ccccc3)COCC4)CC2)nc1 [Example 76]	23%	11%
COc1ccc(N2CC[C@@H](C)N(C(=O)c3nc4ccccn4c3-c3ccccc3)CC2)nc1 [Example 77]	38%	16%
COc1ccc(N2CC[C@@H](C)N(C(=O)c3nn4ccccc4c3-c3ccccc3)CC2)nc1 [Example 78]	90%	52%
COc1ccc(N2CC[C@@H](C)N(C(=O)c3nn4c(c3-c3ccccc3)OCCC4)CC2)nc1 [Example 79]	45%	21%
COc1ccc(N2CC[C@@H](C)N(C(=O)c3nn4cccnc4c3-c3ccccc3)CC2)nc1 [Example 80]	78%	39%
